*1 amine or outer side, *2 acyl side, *3 side chain or, on linkers, in order; H or OH if unused. Where a SMILES comes first, the peptide text is derived from it. Bridges are numbered along the chain shown (N, C = ends). Roman numbers before positions name the chains, in order. [ ]: non-standard residue; d: D form. Actinocin(1to9) = Cc1c2oc3c(C)ccc(C(=O)[*:2])c3nc-2c(C(=O)[*:1])c(N)c1=O; NMeV = CN[C@H](C(=O)O)C(C)C; Sar = CNCC(=O)O
Assays:
[1] = biological target: Beta-3 adrenergic receptor (Homo sapiens, UniProt P13945); test: DRUGMATRIX: Adrenergic beta3 radioligand binding (ligand: [125I] Cyanopindolol); type: cell membranes, HEK293, Membrane; conditions: Not Active = under 50% inhibition at 10 µM
Chain of Beta-3 adrenergic receptor (P13945 whole entry): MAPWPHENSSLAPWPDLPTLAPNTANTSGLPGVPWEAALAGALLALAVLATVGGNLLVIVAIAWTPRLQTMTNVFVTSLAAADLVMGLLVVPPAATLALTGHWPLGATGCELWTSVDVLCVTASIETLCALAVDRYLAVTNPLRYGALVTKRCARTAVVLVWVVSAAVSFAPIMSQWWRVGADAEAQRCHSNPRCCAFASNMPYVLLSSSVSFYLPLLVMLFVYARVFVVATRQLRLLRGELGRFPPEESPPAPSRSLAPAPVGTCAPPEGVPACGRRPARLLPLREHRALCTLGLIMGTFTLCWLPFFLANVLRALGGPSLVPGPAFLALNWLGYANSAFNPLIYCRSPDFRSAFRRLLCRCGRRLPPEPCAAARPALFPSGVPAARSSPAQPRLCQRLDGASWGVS

D(1A) dopamine receptor = D(1A) dopamine receptor (Homo sapiens, UniProt P21728); test: DRUGMATRIX: Dopamine D1 radioligand binding (ligand: [3H] SCH-23390); type: cell membranes, CHO, Membrane; conditions: Not Active = under 50% inhibition at 10 µM; for Ki: read-out: Ki
Chain of D(1A) dopamine receptor (P21728 whole entry): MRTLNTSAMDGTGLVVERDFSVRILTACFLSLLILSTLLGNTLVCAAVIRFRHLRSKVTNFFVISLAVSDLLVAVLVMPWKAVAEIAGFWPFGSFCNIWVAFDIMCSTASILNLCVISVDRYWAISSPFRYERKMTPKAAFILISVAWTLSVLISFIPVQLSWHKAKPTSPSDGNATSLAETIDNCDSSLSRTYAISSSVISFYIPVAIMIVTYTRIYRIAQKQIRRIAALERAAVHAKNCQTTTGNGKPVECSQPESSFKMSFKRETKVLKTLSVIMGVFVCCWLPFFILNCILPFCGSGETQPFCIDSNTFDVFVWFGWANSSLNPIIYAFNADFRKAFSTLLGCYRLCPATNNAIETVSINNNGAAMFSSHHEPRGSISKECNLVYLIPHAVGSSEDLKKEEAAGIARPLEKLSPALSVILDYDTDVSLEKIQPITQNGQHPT

[2] = DRUGMATRIX: Calcium Channel Type L, Benzothiazepine radioligand binding (ligand: [3H] Diltiazem); type: cell membranes, Rattus norvegicus, Wistar, Brain, Membrane; conditions: Not Active = under 50% inhibition at 10 µM
[3] = biological target: T1, Alpha-2C adrenergic receptor (Homo sapiens, UniProt P18825); test: DRUGMATRIX: Adrenergic Alpha-2C radioligand binding (ligand: [3H] MK-912); type: cell membranes, Sf9, Membrane; conditions: for Ki: read-out: Ki
T1 sequence (P18825 whole entry): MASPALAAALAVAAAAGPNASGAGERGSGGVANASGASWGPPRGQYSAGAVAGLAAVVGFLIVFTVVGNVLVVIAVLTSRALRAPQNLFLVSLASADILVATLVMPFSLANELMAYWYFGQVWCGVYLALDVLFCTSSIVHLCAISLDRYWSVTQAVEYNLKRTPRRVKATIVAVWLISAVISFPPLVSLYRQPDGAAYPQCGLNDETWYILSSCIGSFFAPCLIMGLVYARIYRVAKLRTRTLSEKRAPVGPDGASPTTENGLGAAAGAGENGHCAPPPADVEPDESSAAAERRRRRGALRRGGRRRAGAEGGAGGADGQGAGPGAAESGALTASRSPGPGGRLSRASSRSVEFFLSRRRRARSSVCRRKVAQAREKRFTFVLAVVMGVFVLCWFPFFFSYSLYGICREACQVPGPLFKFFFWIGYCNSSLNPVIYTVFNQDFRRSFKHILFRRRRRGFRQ

| Structure (SMILES) | IC50 ([1]; hek293) | IC50 (D(1A) dopamine receptor; cho) | IC50 [2] | Ki [2] | IC50 ([3]; sf9) | IC50 ([3]; read-out: IC50) [nM] | Ki [3] [nM] | IC50 ([1]; read-out: IC50) [nM] | Ki ([1]; read-out: Ki) [nM] | IC50 (D(1A) dopamine receptor; read-out: IC50) [nM] | Ki (D(1A) dopamine receptor) [nM] |
| --- | --- | --- | --- | --- | --- | --- | --- | --- | --- | --- | --- |
| Cc1cc(C2CCCCC2)n(O)c(=O)c1 [CICLOPIROX] | Not Active | Not Active | Not Active | Not Active | Not Active | – | – | – | – | – | – |
| CC1=C2C(=CO[C@H](C)[C@H]2C)C(O)=C(C(=O)O)C1=O [CITRININ] | Not Active | Not Active | Not Active | Not Active | Not Active | – | – | – | – | – | – |
| CC(C)(C)NCC(O)c1cc(Cl)c(N)c(Cl)c1 (stereo not drawn) [CLENBUTEROL] | Not Active | Not Active | Not Active | Not Active | Not Active | – | – | – | – | – | – |
| CC(C)(Oc1ccc(Cl)cc1)C(=O)O [CLOFIBRIC ACID] | Not Active | Not Active | Not Active | Not Active | Not Active | – | – | – | – | – | – |
| Clc1cccc(Cl)c1NC1=NCCN1 [CLONIDINE] | Not Active | Not Active | Not Active | Not Active | Not Active | – | – | – | – | – | – |
| Cc1cc(C(C#N)c2ccc(Cl)cc2)c(Cl)cc1NC(=O)c1cc(I)cc(I)c1O (stereo not drawn) [CLOSANTEL] | Not Active | Not Active | Not Active | Not Active | – | 7100 | 1000 | – | – | – | – |
| Cc1onc(-c2ccccc2Cl)c1C(=O)N[C@@H]1C(=O)N2[C@@H]1SC(C)(C)[C@@H]2C(=O)O [CLOXACILLIN] | Not Active | Not Active | Not Active | Not Active | Not Active | – | – | – | – | – | – |
| CC1CC(OC(=O)C(O)c2ccccc2)CC(C)(C)C1 (stereo not drawn) [CYCLANDELATE] | Not Active | Not Active | Not Active | Not Active | Not Active | – | – | – | – | – | – |
| Cc1c2oc3c(C)ccc(C(=O)N[C@@H]4C(=O)N[C@H](C(C)C)C(=O)N5CCC[C@H]5C(=O)N(C)CC(=O)N(C)[C@@H](C(C)C)C(=O)O[C@@H]4C)c3nc-2c(C(=O)N[C@@H]2C(=O)N[C@H](C(C)C)C(=O)N3CCC[C@H]3C(=O)N(C)CC(=O)N(C)[C@@H](C(C)C)C(=O)O[C@@H]2C)c(N)c1=O [DACTINOMYCIN] (I: T[dV]P[Sar][NMeV] / II: T[dV]P[Sar][NMeV]; ester I:1-I:C, II:1-II:C; linker I:N-II:N via Actinocin(1to9)) | Not Active | Not Active | Not Active | Not Active | Not Active | – | – | – | – | – | – |
| Cc1c(O)c(=O)ccn1C [DEFERIPRONE] | Not Active | Not Active | Not Active | Not Active | Not Active | – | – | – | – | – | – |
| CNCCCN1c2ccccc2CCc2ccccc21 [DESIPRAMINE] | Not Active | Not Active | Not Active | Not Active | Not Active | – | – | – | – | – | – |
| O=c1oc2ccccc2c(O)c1Cc1c(O)c2ccccc2oc1=O [DICUMAROL] | Not Active | Not Active | Not Active | Not Active | Not Active | – | – | – | – | – | – |
| C[C@H]1O[C@@H](O[C@H]2[C@@H](O)C[C@H](O[C@H]3[C@@H](O)C[C@H](O[C@H]4CC[C@@]5(C)[C@H](CC[C@@H]6[C@@H]5C[C@@H](O)[C@]5(C)[C@@H](C7=CC(=O)OC7)CC[C@]65O)C4)O[C@@H]3C)O[C@@H]2C)C[C@H](O)[C@@H]1O [DIGOXIN] | Not Active | Not Active | Not Active | Not Active | Not Active | – | – | – | – | – | – |
| CC(C)[C@@]1(NC(=O)[C@@H]2C[C@@H]3c4cccc5[nH]cc(c45)C[C@H]3N(C)C2)O[C@@]2(O)[C@@H]3CCCN3C(=O)[C@H](Cc3ccccc3)N2C1=O.CS(=O)(=O)O [DIHYDROERGOCRISTINE MESYLATE] | – | – | Not Active | Not Active | – | 8.65 | 1.26 | 3310 | 2480 | 1180 | 589 |
| CC(=O)O[C@@]12CO[C@@H]1C[C@H](O)[C@@]1(C)C(=O)[C@H](O)C3=C(C)[C@@H](OC(=O)[C@H](O)[C@@H](NC(=O)OC(C)(C)C)c4ccccc4)C[C@@](O)([C@@H](OC(=O)c4ccccc4)[C@H]21)C3(C)C.O.O.O [DOCETAXEL] | Not Active | Not Active | Not Active | Not Active | Not Active | – | – | – | – | – | – |
| COc1cc2nc(N3CCN(C(=O)C4COc5ccccc5O4)CC3)nc(N)c2cc1OC (stereo not drawn) [DOXAZOSIN] | Not Active | Not Active | Not Active | Not Active | Not Active | – | – | – | – | – | – |
| C[C@H]1c2cccc(O)c2C(=O)C2=C(O)[C@]3(O)C(=O)C(C(N)=O)=C(O)[C@@H](N(C)C)[C@@H]3[C@@H](O)[C@@H]21.O [DOXYCYCLINE] | Not Active | Not Active | Not Active | Not Active | Not Active | – | – | – | – | – | – |
| O=C(CCCN1CC=C(n2c(=O)[nH]c3ccccc32)CC1)c1ccc(F)cc1 [DROPERIDOL] | Not Active | – | Not Active | Not Active | – | 1760 | 256 | – | – | 1090 | 546 |
| CC(C)[C@H]1C(=O)N2CCC[C@H]2[C@]2(O)O[C@](NC(=O)[C@@H]3C=C4c5cccc6[nH]cc(c56)C[C@H]4N(C)C3)(C(C)C)C(=O)N12 [ERGOCORNINE] | Not Active | – | Not Active | Not Active | – | 17 | 2.41 | – | – | 294 | 147 |
| C[C@]12CC[C@@H]3c4ccc(O)cc4CC[C@H]3[C@@H]1CCC2=O [ESTRONE] | Not Active | Not Active | Not Active | Not Active | Not Active | – | – | – | – | – | – |
| OC(Cn1cncn1)(Cn1cncn1)c1ccc(F)cc1F [FLUCONAZOLE] | Not Active | Not Active | Not Active | Not Active | Not Active | – | – | – | – | – | – |
| CC(C)C(=O)Nc1ccc([N+](=O)[O-])c(C(F)(F)F)c1 [FLUTAMIDE] | Not Active | Not Active | Not Active | Not Active | Not Active | – | – | – | – | – | – |
| N=C(N)NCCN1CCCCCCC1 [GUANETHIDINE] | Not Active | Not Active | Not Active | Not Active | Not Active | – | – | – | – | – | – |
| CC1(C)O[C@@H]2C[C@H]3[C@@H]4CCC5=CC(=O)CC[C@]5(C)[C@@]4(F)[C@@H](O)C[C@]3(C)[C@]2(C(=O)CCl)O1 [HALCINONIDE] | Not Active | Not Active | Not Active | Not Active | Not Active | – | – | – | – | – | – |
| O=c1[nH]c(=O)n([C@H]2C[C@H](O)[C@@H](CO)O2)cc1I [IDOXURIDINE] | Not Active | Not Active | Not Active | Not Active | Not Active | – | – | – | – | – | – |
| CC1Cc2ccccc2N1NC(=O)c1ccc(Cl)c(S(N)(=O)=O)c1 (stereo not drawn) [INDAPAMIDE] | Not Active | Not Active | Not Active | Not Active | Not Active | – | – | – | – | – | – |
| Nc1nc(N)nc(-c2cc(Cl)ccc2Cl)n1.O=C(O)/C=C\C(=O)O [IRSOGLADINE MALEATE] | Not Active | Not Active | Not Active | Not Active | Not Active | – | – | – | – | – | – |
